The values that follow come from paper PMC3229521, “Engineering Genetically Encoded Nanosensors for Real-Time In Vivo Measurements of Citrate Concentrations” (PLoS ONE, 2011).

Each structure is given as a SMILES string. Counter-ions that a name gives are not always drawn.

Holding throughout (test): Citrate titration of purified FRET nanosensors in a fluorescence plate reader (excitation 433 nm, Venus/CFP emission ratio 530/488 nm) in 20 mM MOPS, 20 mM NaCl, pH 7, fitted to a single site binding curve.
Holding throughout (conditions): n = 2

One test deals with T1, CIT0.5m (Klebsiella pneumoniae, UniProt P52687, K120A/R92A).
T1 construct: gene citA; CitA residues 6-130 inserted between CFP and Venus (pGW1, pRSET-based), His-tag purified
T1 sequence (P52687 49-173 R92A/K120A): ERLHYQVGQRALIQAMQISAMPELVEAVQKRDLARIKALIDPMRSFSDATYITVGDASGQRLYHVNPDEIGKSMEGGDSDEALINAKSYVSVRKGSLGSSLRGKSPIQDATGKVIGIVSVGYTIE
On the procedure:
(§1) Next, we thoroughly tested the newly created nanosensor CFP-CitA6-130-Venus in vitro. We determined the binding properties by mixing the sensor with 0.5 to 1000 µM citrate. The obtained ratios were fitted to a single site binding curve as described in the methods section. We determined the KD, the ligand concentration at half-maximal saturation, to be 8 µM, which is very close to the value determined by Gerharz et al (2003) using isothermal titration calorimetry to characterize the purified protein [25]. The reproducibility between different batches of proteins extraction was excellent, with ratios in general not differing by more than 5%. A crucial feature for in vivo application is specificity. We thus exposed the nanosensor to a variety of structurally related organic acids including isocitrate, aconitate, α-ketoglutarate, succinate and pyruvate in presence or absence of citrate. […] In the case of isocitrate, we observed an effect only at concentrations above 1 mM (Figure 2 B) in absence of citrate, which by far exceeds the concentration typically observed by metabolomics in microbes. Also, the apparent affinity for citrate was not modified in the presence of isocitrate or aconitate (data not shown), which excludes competitive binding. After confirming the high specificity of the sensor we tested pH stability, which is crucial when aiming to study certain intracellular compartments (Figure S2 A). […] Therefore, the new nanosensor should be functional in most compartments, however it is not suitable for highly acidic compartments such as endosomes or vacuoles. We also tested the effect of high salt concentrations as typically observed in cells. […] Thus, as has been previously observed when comparing nanosensors in vitro and in vivo [13], [23], we can expect the observed fluorescence intensity ratio in vivo to be lower than under assay conditions. The KD and the dynamic range, however, were not altered, and thus relative changes in citrate concentrations can still be monitored in vivo.
(§2) The natural receptor CitA is highly sensitive and detects low concentrations of citrate in the periplasmic environment and thus has a very high affinity for its substrate. For application as an intracellular sensor a saturation concentration of approximately 100 µM appeared too low given the estimates of intracellular concentrations of citrate by metabolomics approaches in the mid micromolar to low millimolar range [3]. We therefore engineered the affinity of the nanosensor for in vivo applications. Gerharz et al systematically investigated residues of the CitA sensor domain involved in citrate binding. Replacement of positively charged amino acids with alanine led to decreased affinity. We chose five of the reported point mutations and introduced them into the sensor CitA6-130. We determined binding constants and total FRET ratios from two independent extractions (Table 1). The binding constants were qualitatively in good agreement with the observations of Gerharz et al., though in some cases we observed a much larger decrease of affinity. This might be due to the different measurement techniques, a different behaviour of the truncated and sandwiched protein compared to the isolated full-length protein, or to the minor differences we found in the sequence compared to the published Klebsiella CitA gene (sequence of the final sensor can be found in Document S1). […] Decreasing the affinity for the designated substrate bears the risk of also reducing specificity. We therefore tested all mutated sensors for binding of isocitrate and aconitate, the most closely related compounds. […] Also, pH and salt sensitivity were similar to the original sensor (data not shown).
(§3) All in vitro assays were performed in a TECAN Infinite 200 plate reader (TECAN, Austria) in 96 well format (modified from). Proteins, reagents and ligands were dissolved in assay buffer (20 mM Mops, 20 mM NaCl, pH 7 unless specified otherwise). […]

In another test the target is T2, CIT1.8m (Klebsiella pneumoniae, UniProt P52687, R150A).
T2 construct: gene citA; CitA residues 6-130 inserted between CFP and Venus (pGW1, pRSET-based), His-tag purified
T2 sequence (P52687 49-173 R150A): T1 sequence (P52687 49-173 R92A/K120A)
On the procedure: as §1, §2, §3

In another test the target is T3, CIT32μ (Klebsiella pneumoniae, UniProt P52687, K135A).
T3 construct: gene citA; CitA residues 6-130 inserted between CFP and Venus (pGW1, pRSET-based), His-tag purified
T3 sequence (P52687 49-173 K135A): T1 sequence (P52687 49-173 R92A/K120A)
On the procedure: as §1, §2, §3

Another test addresses T4, CIT50μ (Klebsiella pneumoniae, UniProt P52687, R92A).
T4 construct: gene citA; CitA residues 6-130 inserted between CFP and Venus (pGW1, pRSET-based), His-tag purified
T4 sequence (P52687 49-173 R92A): T1 sequence (P52687 49-173 R92A/K120A)
On the procedure:
as §1, §2, §3

Test [1] addresses T5, CIT8μ (CFP-CitA6-130-Venus) (Klebsiella pneumoniae, UniProt P52687).
T5 construct: gene citA; CitA residues 6-130 inserted between CFP and Venus (pGW1, pRSET-based), His-tag purified
On the procedure:
as §1, §2, §3

The target of a further test is T6, CIT96μ (Klebsiella pneumoniae, UniProt P52687, K120A).
T6 construct: gene citA; CitA residues 6-130 inserted between CFP and Venus (pGW1, pRSET-based), His-tag purified
T6 sequence (P52687 49-173 K120A): T1 sequence (P52687 49-173 R92A/K120A)
On the procedure: as §1, §2, §3

T5 sequence (P52687 50-174): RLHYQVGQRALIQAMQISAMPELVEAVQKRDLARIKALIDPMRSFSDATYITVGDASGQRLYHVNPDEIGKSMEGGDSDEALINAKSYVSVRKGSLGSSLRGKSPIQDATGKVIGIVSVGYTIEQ

For the compound `O=C(O)CC(O)(CC(=O)O)C(=O)O` [citrate, citrate (citric acid)], the Kd came out at 470 µM at CIT0.5m; 1760 µM at CIT1.8m; 32 µM at CIT32μ; 50 µM on CIT50μ; 8 µM in test [1]; 96 µM at CIT96μ.

As a reminder, the Kd is the equilibrium constant for the complex coming apart.
